Assay results: publication PMC8903829 (eLife, 2022)
Like-named read-outs stand apart in the source and are kept apart here.

Assays:
[1] = Bioanalytical assessment of plasma and brain concentrations after rat DC-MES assay; assay type: in vivo; conditions: rat, oral, Rat DC-MES
[2] = Bioanalytical assessment of plasma and brain concentrations after mouse DC-MES assay; assay type: in vivo; conditions: mouse, oral, WT mouse DC-MES acute
Method: Approximately 0.5 mL of blood was collected from each mouse at the end of the assay via cardiac puncture under deep anesthesia. The blood samples were collected in a syringe and transferred to tubes containing EDTA. Blood was stored at 4 °C until centrifuged within 30 min of collection. Plasma was harvested and placed on dry ice and stored in a freezer set to maintain a temperature of –70°C to –80°C until analysis. Brains were harvested immediately after blood collection and placed on dry ice prior to storage in a freezer set to maintain a temperature of –70°C to –80°C until analysis.
Extraction of plasma samples was carried out by protein precipitation using acetonitrile. Plasma samples (50 µL) were mixed with 50 µL of internal standard (IS) solution in water followed by addition of 10 µL of concentrated ortho-phosphoric acid and 200 µL of acetonitrile. Samples were vortexed for 30 seconds, centrifuged at 13,000 rpm for 20 min, decanted in to a 96-well plate, and further centrifuged at 4000 rpm for 20 min. The samples were analyzed by UHPLC-ESI-MS/MS as described below.
Prior to extraction, pre-weighed whole brains were homogenized in 1:1 acetonitrile/water (v/v) (4 mL per mouse brain) using an IKA T18 ULTRA-TURRAX Homogenizer at the setting of 4 for approximately 2 min. The homogenate was centrifuged at 13,000 rpm for 20 min and 50 µL of the supernatant were treated exactly as described above for plasma samples. […]
Samples were analyzed by UHPLC-ESI MS/MS using a TQ-5500 Sciex triple quadrupole mass spectrometer equipped with a Shimadzu Nexera UHPLC pump and auto-sampler system using an ACE C18 PFP, 2.50 × 50 mm, 1.7 µm particle size column and gradient elution consisting of solvent A (0.1% formic acid in water) and solvent B (0.1% formic acid in acetonitrile) starting at 20% B from 0 min to 0.4 min and then increased to 100% B from 0.4 min to 0.6 min. At 2.0 min, the mobile phase composition was switched back to […] for 1 min. The flow rate used throughout the experiment was […]. […] The UHPLC-ESI MS/MS system was controlled by Analyst 1.6.
Sample concentrations were determined using a linear calibration function, weighted 1 /X, generated by the regression of analyte to IS peak area ratios in the standard samples to their respective concentrations. Acceptance criteria for the analytical run required that the back calculated values of the standards and the QC samples fell within ±20% of their nominal values, except for the lowest standard or lower limit of quantitation (LLOQ), for which the acceptance criterion was ±25%. At least 6 out of 12 standard points had to show back-calculated values within ±20% of their nominal concentrations for the calibration to be accepted. At least three QC samples, one at each level, had to show back-calculated values within ±20% of their nominal concentrations for the whole sample batch to be valid.

[3] = system: wild-type Sprague Dawley rats; assay: DC-Maximal electroshock seizure assay (DC-MES); assay type: in vivo, rat
Method: (§1) Phenytoin was formulated in physiologic saline and was administered intraperitoneally (i.p.) using a 25-gauge needle at a dose volume of 10 mL/kg. All compounds were administered 2 hr prior to electrical seizure induction for all seizure models employed in this study.
(§2) The maximal electroshock seizure (MES) assay has been extensively used in the search for anticonvulsant substances ([Löscher et al., 1991]; [Piredda et al., 1985]; [White et al., 1995]). The MES assay is sensitive to nonselective NaV inhibitors. It is considered a model for generalized tonic-clonic (GTC) seizures and provides an assessment of seizure spread. Briefly, an electroshock of direct current (DC) was delivered by corneal electrodes (Electro Convulsive Therapy Unit 57,800 from Ugo Basile). The parameters of stimulation were different between mice and rats. In CF1 mice aged 9–12 weeks, a direct current of 50 mA (60 Hz) was delivered for 0.2 s (pulse width of 0.5ms), whereas in Sprague Dawley (SD) rats aged 5–6 weeks, a direct current of 150 mA (60 Hz) was delivered for 0.3 s (pulse width of 0.5ms). Immediately prior to the electroshock, the animals’ eyes were anesthetized with a drop of Alcaine (0.5% proparacaine hydrochloride).
(§3) An animal was considered protected in the assay in the absence of a GTC with hindlimb extension and is then scored ‘0’. An animal displaying GTC with hindlimb extension was considered not protected and is then scored ‘1’. The experimenter scoring the seizure behavior was blinded to the treatment.

Sprague Dawley rats = assay: Observation of potential adverse behavior (behavioral signs) in the rat DC-MES studies; assay type: in vivo; conditions: rat
Method: Animals were observed by the scientist(s) responsible for dosing for the first 30 min after dosing for and again at the time of assay (2 hr post dose) for signs of abnormal behavior.

wild-type mice (CF-1) = assay: DC-Maximal electroshock seizure assay (DC-MES); assay type: in vivo, mouse
Method: as §1, §2, §3

`NC(=O)N1c2ccccc2C=Cc2ccccc21` [carbamazepine, Carbamazepine, reference compound] showed a concentration at 2 h ([1]; brain, 3 mg/kg, Study18058, 3 mg/kg, read-out: Mean [Brain]) of 0.979 µM, a concentration at 2 h ([1]; brain, 10 mg/kg, Study18058, 10 mg/kg, read-out: Mean [Brain]) of 4.24 µM and a concentration at 2 h ([1]; brain, 20 mg/kg, Study18058, 20 mg/kg, read-out: Mean [Brain]) of 11 µM. The concentration at 2 h ([1]; brain, 30 mg/kg, Study18068, 30 mg/kg, read-out: Mean [Brain]) was 30.4 µM, the concentration at 2 h ([1]; brain, 100 mg/kg, Study18068, 100 mg/kg, read-out: Mean [Brain]) was 55.5 µM and the concentration at 2 h ([1]; brain, 300 mg/kg, Study18085, 300 mg/kg, read-out: Mean [Brain]) was 79.9 µM. For the same compound, the concentration at 2 h ([1]; plasma, 3 mg/kg, Study18058, 3 mg/kg, read-out: Mean [Palsma]) was 0.966 µM, the concentration at 2 h ([1]; plasma, 10 mg/kg, Study18058, 10 mg/kg, read-out: Mean [Palsma]) was 4.27 µM and the concentration at 2 h ([1]; plasma, 20 mg/kg, Study18058, 20 mg/kg, read-out: Mean [Palsma]) was 11.3 µM. For the same compound, the concentration at 2 h ([1]; plasma, 30 mg/kg, Study18068, 30 mg/kg, read-out: Mean [Palsma]) was 24 µM, the concentration at 2 h ([1]; plasma, 100 mg/kg, Study18068, 100 mg/kg, read-out: Mean [Palsma]) was 42.7 µM and the concentration at 2 h ([1]; plasma, 300 mg/kg, Study18085, 300 mg/kg, read-out: Mean [Palsma]) was 65.9 µM. For the same compound, the concentration at 2 h ([2]; brain, 10 mg/kg, Study17131, 10 mg/kg, read-out: Mean [Brain]) was 18.3 µM, the concentration at 2 h ([2]; brain, 10 mg/kg, Study17134, 10 mg/kg, read-out: Mean [Brain]) was 17.4 µM and the concentration at 2 h ([2]; brain, 30 mg/kg, Study17131, 30 mg/kg, read-out: Mean [Brain]) was 43.1 µM. The concentration at 2 h ([2]; brain, 30 mg/kg, Study17134, 30 mg/kg, read-out: Mean [Brain]) was 46 µM, the concentration at 2 h ([2]; brain, 100 mg/kg, Study17131, 100 mg/kg, read-out: Mean [Brain]) was 115 µM and the concentration at 2 h ([2]; plasma, 10 mg/kg, Study17131, 10 mg/kg, read-out: Mean [Palsma]) was 13.6 µM. For the same compound, the concentration at 2 h ([2]; plasma, 10 mg/kg, Study17134, 10 mg/kg, read-out: Mean [Palsma]) was 16.6 µM, the concentration at 2 h ([2]; plasma, 30 mg/kg, Study17131, 30 mg/kg, read-out: Mean [Palsma]) was 34.5 µM and the concentration at 2 h ([2]; plasma, 30 mg/kg, Study17134, 30 mg/kg, read-out: Mean [Palsma]) was 52.5 µM. The concentration at 2 h ([2]; plasma, 100 mg/kg, Study17131, 100 mg/kg, read-out: Mean [Palsma]) was 91.3 µM, the “Rat DC-MES Fraction of animals seizing” value ([3]; Study18058, 10 mg/kg) was 0.857 and the “Rat DC-MES Fraction of animals seizing” value ([3]; Study18058, 20 mg/kg) was 0.714. For the same compound, the “Rat DC-MES Fraction of animals seizing” value ([3]; Study18068, 30 mg/kg) was 0.571, the “Rat DC-MES Fraction of animals seizing” value ([3]; Study18068, 100 mg/kg) was 0.428 and the “Rat DC-MES Fraction of animals seizing” value ([3]; Study18085, 300 mg/kg) was 0.285. For the same compound, the EC50 ([3]; WT rat DC-MES (oral; phenytoin i.p.), read-out: plasma EC50) was 30 µM, the EC50 ([3]; WT rat DC-MES, 2 hr post dose (oral; phenytoin i.p.), read-out: brain EC50) was 36 µM and the “minimal plasma concentration provoking behavioral signs (BSC)” value (Sprague Dawley rats) was 110 µM. For the same compound, the “WT mouse DC-MES acute Fraction of animals seizing” value (“WT mouse DC-MES acute Fraction” below) (wild-type mice (CF-1); Study17131, 10 mg/kg) was 0.7143, the “WT mouse DC-MES acute Fraction” value (wild-type mice (CF-1); Study17131, 30 mg/kg) was 0.4286 and the “WT mouse DC-MES acute Fraction” value (wild-type mice (CF-1); Study17131, 100 mg/kg) was 0.1429. For the same compound, the “WT mouse DC-MES acute Fraction” value (wild-type mice (CF-1); Study17134, 10 mg/kg) was 0.8571, the “WT mouse DC-MES acute Fraction” value (wild-type mice (CF-1); Study17134, 30 mg/kg) was 0.4286 and the EC50 (wild-type mice (CF-1); WT mouse DC-MES, 2 hr post dose (oral; phenytoin i.p.), read-out: brain EC50) was 44 µM.
